Assay results from patent US7576094B2, “Spiro derivatives as lipoxygenase inhibitors” (Eli Lilly and Company, priority 2004, dated 2009).

Assays:
[1] = molecular target: T1, human recombinant 5-Lipoxygenase (Homo sapiens, UniProt P09917); test: 5-Lipoxygenase Enzyme Assay; type: biochemical; conditions: 70 μM arachidonic acid, 10 minute incubation at room temperature, FOX reagent, absorbance at 620 nm; read-out: inhibition of 5-Lipoxygenase with an IC50
T1 sequence (P09917 1-674): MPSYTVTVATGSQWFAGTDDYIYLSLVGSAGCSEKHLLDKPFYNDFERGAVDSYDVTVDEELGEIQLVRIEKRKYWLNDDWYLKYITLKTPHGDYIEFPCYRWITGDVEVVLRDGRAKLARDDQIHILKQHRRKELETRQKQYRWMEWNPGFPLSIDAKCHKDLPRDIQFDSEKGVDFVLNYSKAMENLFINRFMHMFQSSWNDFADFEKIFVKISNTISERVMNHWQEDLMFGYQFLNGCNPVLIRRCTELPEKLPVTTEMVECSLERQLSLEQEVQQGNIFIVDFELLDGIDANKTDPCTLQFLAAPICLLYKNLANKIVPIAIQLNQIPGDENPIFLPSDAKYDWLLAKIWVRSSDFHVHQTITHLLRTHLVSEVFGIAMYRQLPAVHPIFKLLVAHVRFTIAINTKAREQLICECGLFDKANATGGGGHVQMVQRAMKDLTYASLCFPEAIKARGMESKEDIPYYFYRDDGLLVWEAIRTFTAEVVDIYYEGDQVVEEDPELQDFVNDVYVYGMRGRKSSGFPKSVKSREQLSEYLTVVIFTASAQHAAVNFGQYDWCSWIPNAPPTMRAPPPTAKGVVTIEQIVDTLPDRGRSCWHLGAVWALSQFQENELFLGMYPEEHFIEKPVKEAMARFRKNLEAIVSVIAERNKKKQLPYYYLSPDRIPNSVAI
In short: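 Recombinant human 5-LOX in 50 mM Tris-HCl pH 7.4 was preincubated with compound, then 70 μM arachidonic acid was added for 10 min at room temperature. Hydroperoxide was read by FOX reagent (ferric xylenol orange, 1 h complex formation) as absorbance at 620 nm. Five concentrations in triplicate were tested, starting at 10 μM.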

[2] = system: release of the leukotriene LTB4 from a neutrophil cell line (MPRO cell line); test: LTB4-Cell Assay; type: cell-based; conditions: Mus musculus, 1 h, read-out: inhibition of LTB4 with an EC50
In short: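 Mouse promyelocytic cells differentiated to neutrophils with 10 μM all-trans retinoic acid for 72 h, then stimulated with 1 μM A23187 plus compound for 1 h at 37° C. Supernatant LTB4 quantified by competitive EIA; 5 concentrations in quadruplicate from 10 μM top.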

Structure (SMILES) | IC50 [1] [nM] | EC50 [2] [nM]
CONC1CC2(CCC2)Sc2cc(C)c(O)c(C)c21 (centres unmarked) [4′-(methoxyamino)-5′,7′-dimethyl-3′,4′-dihydrospiro[cyclobutane-1,2′-thiochromen]-6′-ol] | < 300 | < 5000
CCONC1CC2(CCC2)Sc2cc(C)c(O)c(C)c21 (centres unmarked) [4′-(ethoxyamino)-5′,7′-dimethyl-3′,4′-dihydrospiro[cyclobutane-1,2′-thiochromen]-6′-ol] | < 300 | < 5000
Cc1cc2c(c(C)c1O)CC1(CCC1)CO2 [5,7-dimethylspiro[chroman-3,1′-cyclobutan]-6-ol] | < 300 | < 5000
CCONC1CC2(CCC2)Sc2c(C)c(C)c(O)c(C)c21 (centres unmarked) [4′-(ethoxyamino)-5′,7′,8′-trimethyl-3′,4′-dihydrospiro[cyclobutane-1,2′-thiochromen]-6′-ol] | < 300 | < 5000
Cc1cc2c(c(C)c1O)CCC1(CCC1)O2 [5,7-dimethyl-3,4-dihydrospiro[chromene-2,1′-cyclobutan]-6-ol] | < 300 | < 5000
CCONCC1=Cc2c(cc(C)c(O)c2C)OC12CCC2 [3-[(ethoxyamino)methyl]-5,7-dimethylspiro[chromene-2,1′-cyclobutan]-6-ol] | < 300 | < 5000
Cc1c(C)c2c(c(Cl)c1O)CCC1(CCC1)O2 [5-chloro-7,8-dimethyl-3,4-dihydrospiro[chromene-2,1′-cyclobutan]-6-ol] | < 300 | < 5000
CC(C)(C)c1cc2c(cc1O)CCC1(CCC1)O2 [7-tert-butyl-3,4-dihydrospiro[chromene-2,1′-cyclobutan]-6-ol] | < 300 | < 5000
Cc1cc2c(c(C)c1O)C=CC1(CCC1)O2 [5,7-dimethylspiro[chromene-2,1′-cyclobutan]-6-ol] | < 300 | < 5000
Cc1c(C)c2c(c(C)c1O)C1(CCC1)CC(C)(C)S2 [2′,2′,5′,7′,8′-pentamethyl-2′,3′-dihydrospiro[cyclobutane-1,4′-thiochromen]-6′-ol] | < 300 | < 5000
CONC1CC2(CCC2)Sc2c(C)c(C)c(O)c(C)c21 (centres unmarked) [4′-(methoxyamino)-5′,7′,8′-trimethyl-3′,4′-dihydrospiro[cyclobutane-1,2′-thiochromen]-6′-ol] | < 300 | < 5000
Cc1c(C)c2c(c(C)c1O)CCC1(CC1)O2 [5,7,8-trimethyl-3,4-dihydrospiro[chromene-2,1′-cyclopropan]-6-ol] | < 300 | < 5000
CCc1cc2c(c(CC)c1O)CC(CSCC(=O)OC)C1(CCC1)O2 (centres unmarked) [methyl 2-((5,7-diethyl-6-hydroxyspiro[chroman-2,1′-cyclobutane]-3-yl)methylthio)acetate] | < 300 | < 5000
COC(C)C1=Cc2c(C)c(O)c(C)c(C)c2OC12CCC2 (centres unmarked) [3-(1-methoxyethyl)-5,7,8-trimethylspiro[chromene-2,1′-cyclobutan]-6-ol] | < 300 | < 5000
CO/N=C1\CC2(CCC2)Sc2c(C)c(C)c(O)c(C)c21 [6′-hydroxy-5′,7′,8′-trimethylspiro[cyclobutane-1,2′-thiochroman]-4′(3′H)-one O-methyloxime] | < 300 | < 5000
Cc1c(O)cc2c(c1C)OC1(CCC1)CC2 [7,8-dimethyl-3,4-dihydrospiro[chromene-2,1′-cyclobutan]-6-ol] | < 300 | < 5000
Cc1c(C)c2c(c(C)c1O)C1(CCC1)CCS2 [5′,7′,8′-trimethyl-2′,3′-dihydrospiro[cyclobutane, 1,4′-thiochromen]-6′-ol] | < 300 | < 5000
Cc1c(O)c(C(C)(C)C)cc2c1CCC1(CCC1)O2 [7-tert-butyl-5-methyl-3,4-dihydrospiro[chromene-2,1′-cyclobutan]-6-ol] | < 300 | < 5000
CCO/N=C/C1=Cc2c(cc(C)c(O)c2C)OC12CCC2 [6-hydroxy-5,7-dimethylspiro[chromene-2,1′-cyclobutane]-3-carbaldehyde O-ethyloxime] | < 300 | < 5000
